In brackets after ≈: the same amount, converted by molar mass.
test system: HIV-1 (RF); experiment: HIV RNA assay: microplate based compound evaluation in HIV-1 infected MT-2 cells; format: cell-based; settings: Human immunodeficiency virus 1, MT2, 72 h; HIV-1 (RF) infected MT-2 cells, 3 days culture; value used to standardize the virus inoculum; read-out: IC90 (concentration of compound required to reduce the HIV RNA level by 90%)
Experimental: DNA Plasmids and in Vitro RNA Transcripts:
Plasmid pDAB 72 containing both gag and pol sequences of BH10 (bp 113-1816) cloned into PTZ 19R was prepared according to Erickson-Viitanen et al. AIDS Research and Human Retroviruses 1989, 5, 577. The plasmid was linearized with Bam HI prior to the generation of in vitro RNA transcripts using the Riboprobe Gemini system II kit (Promega) with T7 RNA polymerase. Synthesized RNA was purified by treatment with RNase free DNAse (Promega), phenol-chloroform extraction, and ethanol precipitation. RNA transcripts were dissolved in water, and stored at −70° C. The concentration of RNA was determined from the A260.
Biotinylated capture probes were purified by HPLC after synthesis on an Applied Biosystems (Foster City, Calif.) DNA synthesizer by addition of biotin to the 5′ terminal end of the oligonucleotide, using the biotin-phosphoramidite reagent of Cocuzza, Tet. Lett. 1989, 30, 6287. […]
MT-2 and MT-4 cells were maintained in RPMI 1640 supplemented with 5% fetal calf serum (FCS) for MT-2 cells or 10% FCS for MT-4 cells, 2 mM L-glutamine and 50 μg/mL gentamycin, all from Gibco. […] Infectious titers of HIV-1(RF) stocks were 1-3×10^7 PFU (plaque forming units)/mL as measured by plaque assay on MT-2 cells (see below). […]

| SMILES | IC90 [µg/mL] |
| --- | --- |
| Nc1ccn([C@H]2CC[C@@H](CO)O2)c(=O)n1 [ddC, 2′,3′-dideoxycytidine] | 0.2 (≈ 0.947 µM) |

test system: not given; experiment: not given; settings: not given

| SMILES | melting point [°C] |
| --- | --- |
| CC(C)OCC1(C(F)(F)F)c2cc(Cl)ccc2Nc2ncc(Cl)cc21 (stereo not drawn) [Compound 9, 3,7-Dichloro-5-isopropoxymethyl-5-trifluoromethyl-5,10-dihydro-benzo[b][1,8]naphthyridine] | 137 to 138 |
| CC(C)OCC1(C(F)(F)F)c2cc(C#N)ccc2Nc2ncc(Br)cc21 (stereo not drawn) [Compound 15, 3-bromo-7-cyano-5-trifluoromethyl-5-isopropoxymethyl-5,10-dihydrobenzo[b][1,8]naphthyridine] | 76 to 77 |
| CC(C)OCC1(C(F)(F)F)c2cc(C#N)ccc2Nc2ncc(C#N)cc21 (stereo not drawn) [Compound 17, 3,7-dicyano-5-trifluoromethyl-5-isopropoxymethyl-5,10-dihydrobenzo[b][1,8]naphthyridine] | 226 to 227 |
| CC(C)OCC1(C(F)(F)F)c2cc(F)ccc2Nc2ncc(Cl)cc21 (stereo not drawn) [Compound 6, 3-Chloro-7-fluoro-5-isopropoxymethyl-5-trifluoromethyl-5,10-dihydro-benzo[b][1,8]naphthyridine] | 96 to 97 |
| CC(C)OCC1(C(F)(F)F)c2cc(F)ccc2Nc2c1cc(Cl)c[n+]2[O-] (stereo not drawn) [Compound 7, 3-Chloro-7-fluoro-5-isopropoxymethyl-5-trifluoromethyl-5,10-dihydro-benzo[b][1,8]naphthyridine 1-oxide] | 165 to 166 |

Reference: patent US6825210B2, “Tricyclic compounds useful as HIV reverse transcriptase inhibitors” (Bristol-Myers Squibb Pharma Company, priority 2001, dated 2004)
